This is an account of results in ChEMBL document CHEMBL5465560, “Selectivity Literature for EUbOPEN Chemogenomic Library” (2024).

Assay [1] addresses Mitogen-activated protein kinase kinase kinase 20 (Homo sapiens) (UniProt Q9NYL2). Put plainly: Selectivity interaction (KinomeScan (DiscoverX)) EUB0001619a MAP3K20. The settings on record: at 1 µM.
Assay [2] deals with Phosphatidylinositol 4,5-bisphosphate 3-kinase catalytic subunit alpha isoform (Homo sapiens), P42336 [E545K]. The note with it: at 10 µM.
For assay [3], the target named is T1, Receptor-interacting serine/threonine-protein kinase 4 (Homo sapiens) (UniProt P57078).
T1 sequence (whole entry): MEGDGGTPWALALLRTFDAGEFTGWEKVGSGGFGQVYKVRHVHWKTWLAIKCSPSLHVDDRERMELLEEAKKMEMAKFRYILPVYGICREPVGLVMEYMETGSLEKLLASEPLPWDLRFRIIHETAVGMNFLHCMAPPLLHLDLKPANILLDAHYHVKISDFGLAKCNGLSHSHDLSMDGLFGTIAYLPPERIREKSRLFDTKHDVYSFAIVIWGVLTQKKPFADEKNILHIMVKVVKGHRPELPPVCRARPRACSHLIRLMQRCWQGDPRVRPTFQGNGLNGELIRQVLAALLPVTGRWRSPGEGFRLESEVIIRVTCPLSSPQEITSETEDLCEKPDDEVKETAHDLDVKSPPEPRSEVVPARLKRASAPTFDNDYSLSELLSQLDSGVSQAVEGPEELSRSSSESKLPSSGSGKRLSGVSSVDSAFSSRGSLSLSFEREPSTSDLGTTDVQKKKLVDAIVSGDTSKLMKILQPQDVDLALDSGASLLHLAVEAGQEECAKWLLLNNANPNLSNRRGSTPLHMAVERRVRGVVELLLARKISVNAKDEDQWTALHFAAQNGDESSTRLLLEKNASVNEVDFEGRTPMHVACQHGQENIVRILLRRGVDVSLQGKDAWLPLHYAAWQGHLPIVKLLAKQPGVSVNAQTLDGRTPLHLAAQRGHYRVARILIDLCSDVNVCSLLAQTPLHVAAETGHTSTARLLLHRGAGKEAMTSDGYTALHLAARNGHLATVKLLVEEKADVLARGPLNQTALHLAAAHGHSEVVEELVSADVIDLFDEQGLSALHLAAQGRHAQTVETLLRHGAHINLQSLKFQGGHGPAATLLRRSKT
The assay can be described thus: Selectivity interaction (KinomeScan (DiscoverX)) EUB0000666a RIPK4. The settings on record: at 10 µM.

Assay [4] has as its target Serine/threonine-protein kinase 24 (Homo sapiens) (UniProt Q9Y6E0). The assay can be described thus: Selectivity interaction (ActivX KiNativ screen (kinase selectivity in THP-1 cell lysates)) EUB0000639a STK24. The format is subcellular. The note with it: lysate, at 5 µM.
For assay [5], the target named is Receptor-type tyrosine-protein kinase FLT3 (Homo sapiens) (UniProt P36888). Put plainly: Selectivity interaction (Kinase panel (Invitrogen)) EUB0000639a FLT3. The settings on record: at 200 nM.
The target of assay [6] is T2, Ankyrin repeat and protein kinase domain-containing protein 1 (Homo sapiens) (UniProt Q8NFD2).
T2 sequence (whole entry): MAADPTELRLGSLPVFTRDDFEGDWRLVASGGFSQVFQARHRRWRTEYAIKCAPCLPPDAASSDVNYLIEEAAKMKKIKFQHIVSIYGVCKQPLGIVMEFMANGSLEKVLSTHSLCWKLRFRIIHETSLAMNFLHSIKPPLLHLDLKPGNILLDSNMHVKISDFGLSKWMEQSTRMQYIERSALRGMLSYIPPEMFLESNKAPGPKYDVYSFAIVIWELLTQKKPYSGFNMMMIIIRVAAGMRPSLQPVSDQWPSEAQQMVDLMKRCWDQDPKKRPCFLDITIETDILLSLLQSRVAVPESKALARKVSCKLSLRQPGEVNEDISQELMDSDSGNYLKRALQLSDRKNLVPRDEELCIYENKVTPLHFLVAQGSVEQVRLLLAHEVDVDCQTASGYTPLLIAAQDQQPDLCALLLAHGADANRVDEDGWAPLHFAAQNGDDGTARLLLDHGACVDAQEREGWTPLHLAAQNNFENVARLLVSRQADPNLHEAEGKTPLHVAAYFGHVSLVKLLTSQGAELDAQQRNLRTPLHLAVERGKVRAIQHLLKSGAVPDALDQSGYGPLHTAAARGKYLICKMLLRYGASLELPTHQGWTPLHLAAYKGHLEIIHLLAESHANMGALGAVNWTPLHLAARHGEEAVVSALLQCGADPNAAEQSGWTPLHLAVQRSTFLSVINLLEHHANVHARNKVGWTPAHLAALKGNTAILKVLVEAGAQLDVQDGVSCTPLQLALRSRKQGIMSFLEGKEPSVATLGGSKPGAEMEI
The assay can be described thus: Selectivity interaction (KinomeScan (DiscoverX)) EUB0000045b ANKK1.

Assay [7] addresses T3, Protein kinase C epsilon type (Homo sapiens) (UniProt Q02156).
T3 sequence (whole entry): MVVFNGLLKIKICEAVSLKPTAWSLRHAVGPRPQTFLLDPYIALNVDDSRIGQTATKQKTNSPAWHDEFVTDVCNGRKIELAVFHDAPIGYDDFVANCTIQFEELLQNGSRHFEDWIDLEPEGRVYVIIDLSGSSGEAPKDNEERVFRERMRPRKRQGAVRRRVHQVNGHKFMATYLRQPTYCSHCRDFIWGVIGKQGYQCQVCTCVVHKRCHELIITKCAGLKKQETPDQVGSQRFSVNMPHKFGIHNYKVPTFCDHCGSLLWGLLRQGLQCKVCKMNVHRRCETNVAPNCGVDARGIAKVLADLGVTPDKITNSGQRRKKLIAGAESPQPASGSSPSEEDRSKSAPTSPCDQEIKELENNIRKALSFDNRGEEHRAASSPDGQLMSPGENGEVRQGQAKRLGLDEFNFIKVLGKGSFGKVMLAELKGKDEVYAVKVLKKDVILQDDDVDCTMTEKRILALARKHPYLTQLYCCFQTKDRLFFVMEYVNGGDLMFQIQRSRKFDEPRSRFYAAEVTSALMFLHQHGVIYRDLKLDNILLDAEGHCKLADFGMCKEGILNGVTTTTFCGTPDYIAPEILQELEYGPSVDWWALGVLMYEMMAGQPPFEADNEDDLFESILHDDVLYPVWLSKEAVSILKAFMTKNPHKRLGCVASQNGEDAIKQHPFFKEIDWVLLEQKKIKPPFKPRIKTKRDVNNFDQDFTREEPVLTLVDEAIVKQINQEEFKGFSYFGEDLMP
Put plainly: Selectivity interaction (KinomeScan (DiscoverX)) EUB0000229b PRKCE. The settings on record: at 10 µM.

Structures are written as SMILES.

Sequence of Serine/threonine-protein kinase 24 (Homo sapiens) (Q9Y6E0 whole entry, looked up): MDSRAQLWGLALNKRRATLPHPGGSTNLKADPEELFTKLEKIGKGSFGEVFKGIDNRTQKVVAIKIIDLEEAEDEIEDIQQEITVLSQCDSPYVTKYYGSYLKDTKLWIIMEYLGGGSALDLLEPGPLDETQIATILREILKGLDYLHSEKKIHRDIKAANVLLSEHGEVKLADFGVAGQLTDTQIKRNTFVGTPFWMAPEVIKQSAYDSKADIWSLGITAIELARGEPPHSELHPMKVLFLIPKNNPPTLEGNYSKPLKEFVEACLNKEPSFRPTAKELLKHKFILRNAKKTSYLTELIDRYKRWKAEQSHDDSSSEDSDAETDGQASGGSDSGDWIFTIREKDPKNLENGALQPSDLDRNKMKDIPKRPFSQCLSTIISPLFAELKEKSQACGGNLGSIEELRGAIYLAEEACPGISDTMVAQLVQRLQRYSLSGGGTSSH
Sequence of Receptor-type tyrosine-protein kinase FLT3 (Homo sapiens) (P36888 whole entry, the tested form may be a part): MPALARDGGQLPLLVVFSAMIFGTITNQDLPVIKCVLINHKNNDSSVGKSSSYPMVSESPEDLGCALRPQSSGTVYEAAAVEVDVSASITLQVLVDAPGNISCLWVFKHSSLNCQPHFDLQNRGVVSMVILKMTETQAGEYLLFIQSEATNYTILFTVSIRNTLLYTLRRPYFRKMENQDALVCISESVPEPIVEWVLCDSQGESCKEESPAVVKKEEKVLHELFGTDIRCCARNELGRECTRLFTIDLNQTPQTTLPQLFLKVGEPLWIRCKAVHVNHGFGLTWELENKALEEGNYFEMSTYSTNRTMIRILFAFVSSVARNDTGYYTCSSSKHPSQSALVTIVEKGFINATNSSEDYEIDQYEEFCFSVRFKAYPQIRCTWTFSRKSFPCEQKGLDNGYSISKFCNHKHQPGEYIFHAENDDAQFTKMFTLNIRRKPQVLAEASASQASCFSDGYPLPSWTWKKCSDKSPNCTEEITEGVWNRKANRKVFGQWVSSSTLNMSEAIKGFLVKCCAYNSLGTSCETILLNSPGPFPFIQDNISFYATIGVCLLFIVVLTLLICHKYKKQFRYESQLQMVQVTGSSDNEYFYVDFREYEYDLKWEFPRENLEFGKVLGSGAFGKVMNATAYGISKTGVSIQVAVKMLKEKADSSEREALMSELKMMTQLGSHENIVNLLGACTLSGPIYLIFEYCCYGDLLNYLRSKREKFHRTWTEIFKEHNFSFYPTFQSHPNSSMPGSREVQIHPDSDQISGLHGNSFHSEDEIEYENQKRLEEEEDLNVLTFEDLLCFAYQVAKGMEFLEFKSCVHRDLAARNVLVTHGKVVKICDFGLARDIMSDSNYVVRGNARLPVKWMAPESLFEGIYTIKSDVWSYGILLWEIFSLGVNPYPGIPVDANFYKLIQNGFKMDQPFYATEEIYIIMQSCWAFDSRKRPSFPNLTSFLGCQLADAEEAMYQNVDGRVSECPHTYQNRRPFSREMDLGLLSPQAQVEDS
Sequence of Phosphatidylinositol 4,5-bisphosphate 3-kinase catalytic subunit alpha isoform (Homo sapiens), P42336 [E545K] (P42336 whole entry E545K, canonical isoform): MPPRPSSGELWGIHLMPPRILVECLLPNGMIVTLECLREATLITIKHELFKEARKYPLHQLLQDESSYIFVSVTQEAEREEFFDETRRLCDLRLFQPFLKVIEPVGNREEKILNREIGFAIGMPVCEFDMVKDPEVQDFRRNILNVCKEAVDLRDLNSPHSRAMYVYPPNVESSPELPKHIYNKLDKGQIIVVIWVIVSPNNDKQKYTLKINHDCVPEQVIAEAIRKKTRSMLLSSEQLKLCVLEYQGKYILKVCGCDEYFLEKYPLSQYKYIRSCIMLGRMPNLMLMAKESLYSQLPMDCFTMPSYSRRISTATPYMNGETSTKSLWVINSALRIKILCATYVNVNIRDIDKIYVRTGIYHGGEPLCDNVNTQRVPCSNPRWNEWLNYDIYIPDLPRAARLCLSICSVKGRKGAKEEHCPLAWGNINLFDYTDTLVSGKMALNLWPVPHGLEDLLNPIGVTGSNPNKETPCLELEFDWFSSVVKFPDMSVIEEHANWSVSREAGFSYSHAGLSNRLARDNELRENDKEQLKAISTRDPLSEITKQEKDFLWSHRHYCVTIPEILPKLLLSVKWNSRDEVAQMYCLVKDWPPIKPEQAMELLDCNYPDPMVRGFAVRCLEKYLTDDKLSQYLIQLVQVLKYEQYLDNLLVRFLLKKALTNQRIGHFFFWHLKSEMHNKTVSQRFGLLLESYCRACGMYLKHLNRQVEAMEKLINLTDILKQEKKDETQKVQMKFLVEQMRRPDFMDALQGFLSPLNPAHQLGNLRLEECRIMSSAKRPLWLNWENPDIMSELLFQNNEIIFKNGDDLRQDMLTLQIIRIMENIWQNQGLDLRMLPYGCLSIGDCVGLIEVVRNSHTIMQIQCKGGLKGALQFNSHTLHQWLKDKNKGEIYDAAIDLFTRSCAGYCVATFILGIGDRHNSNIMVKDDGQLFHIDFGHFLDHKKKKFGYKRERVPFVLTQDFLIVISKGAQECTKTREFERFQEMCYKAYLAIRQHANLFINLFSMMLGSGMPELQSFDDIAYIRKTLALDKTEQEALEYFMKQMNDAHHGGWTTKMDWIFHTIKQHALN
Sequence of Mitogen-activated protein kinase kinase kinase 20 (Homo sapiens) (Q9NYL2 2-800 limits assumed): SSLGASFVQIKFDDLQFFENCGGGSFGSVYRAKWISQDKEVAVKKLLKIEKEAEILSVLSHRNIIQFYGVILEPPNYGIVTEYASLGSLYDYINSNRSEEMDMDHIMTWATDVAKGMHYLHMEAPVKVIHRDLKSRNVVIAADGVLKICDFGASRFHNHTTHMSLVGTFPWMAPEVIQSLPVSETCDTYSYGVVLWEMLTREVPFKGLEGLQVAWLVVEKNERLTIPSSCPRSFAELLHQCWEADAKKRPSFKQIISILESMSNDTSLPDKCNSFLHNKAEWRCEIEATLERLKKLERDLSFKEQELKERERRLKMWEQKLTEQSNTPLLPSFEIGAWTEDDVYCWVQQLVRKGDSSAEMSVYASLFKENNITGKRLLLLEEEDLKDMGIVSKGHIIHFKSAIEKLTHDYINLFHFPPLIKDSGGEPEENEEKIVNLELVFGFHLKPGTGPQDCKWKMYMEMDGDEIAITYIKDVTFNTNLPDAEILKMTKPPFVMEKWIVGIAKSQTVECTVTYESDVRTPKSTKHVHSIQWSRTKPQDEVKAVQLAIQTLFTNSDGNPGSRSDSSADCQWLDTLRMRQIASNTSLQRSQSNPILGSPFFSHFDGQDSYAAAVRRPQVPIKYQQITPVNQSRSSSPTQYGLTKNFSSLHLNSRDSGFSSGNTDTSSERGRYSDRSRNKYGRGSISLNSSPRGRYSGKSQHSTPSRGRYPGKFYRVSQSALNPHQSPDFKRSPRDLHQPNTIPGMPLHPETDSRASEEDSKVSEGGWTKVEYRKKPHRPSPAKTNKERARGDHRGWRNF

`N#Cc1cccc(-c2c[nH]c3ncnc(N4CCOCC4)c23)c1`: the % of control in assay [1] stood at 86%.

`CCN(CC)CCCCNc1ncc2cc(-c3cc(OC)cc(OC)c3)c(NC(=O)NC(C)(C)C)nc2n1`: the % of control in assay [2] turned out to be 100%. In turn, `O=C(NOC[C@H](O)CO)c1ccc(F)c(F)c1Nc1ccc(I)cc1F` had a % of control in assay [3] of 100%. Take `CC[C@@H]1[C@H](F)C(=O)N[C@@H]1COc1nccc2cc(C(N)=O)c(OC)cc12` [ZIMLOVISERTIB]: the % of inhibition in assay [4] came to 3.2%; in assay [5], 9.68%. With `C=CC(=O)Nc1cc(-n2c(=O)ccc3cnc4ccc(-c5ccc(NS(C)(=O)=O)cc5)cc4c32)ccc1C`, the % of control in assay [6] (at 1 µM) was 100%; in assay [6] (at 10 µM) it was 77%. As for `COc1cc(N(C)c2ccnc3ccc(C(F)(F)F)cc23)cc(OC)c1OC`, the % binding in assay [7] was 55%.
